This test deals with T1, hJNK1 (Homo sapiens, UniProt P45983).
T1 construct: His; purchased Upstate 14-327
Kind of test: AlphaScreen assay, inhibition of JNK1 phosphorylation of c-Jun substrate. It counts as biochemical. The following applies: in comparison to L-TAT-IB1; FIG. 4 (JNK1, JNK2, JNK3 AlphaScreen). The procedure: In the following a standard operating procedure will be set forth describing how the Inhibitory efficacy of JNK inhibitors according to the present invention was measured. The method allows to measure in vitro, in a non radioactive standardized assay, the ability of a candidate compound to decrease the phosphorylation of the c-Jun specific substrate by JNK. Moreover, it will be illustrated how to determine the inhibitory effect (IC50) and the Ki of a chosen compound for JNK. […] And a person skilled in the art will certainly understand how to adapt the below methods for his specific purposes and needs.
AlphaScreen Reagent and Plate: • His-JNK1 (ref 14-327, Upstate, 10 μg in 100 μl: concentration: 2.2 μM) 5 nM final • His-JNK2 (ref 14-329, Upstate, 10 μg in 100 μl: concentration: 2 μM) 5 nM final • His-JNK3 (ref 14-501, Upstate, 10 μg in 100 μl: concentration: 1.88 μM) 5 nM final • Anti-Phospho-cJun (ref 06-828, Upstate, lot DAM1503356, concentration: 44.5 μM) 10 nM final • Biotin-cJun (29-67): • sequence: Biotin—[…] […]
The bioluminescent energy transfer was read on the Fusion Alpha Plate reader (Perkin Elmer). […]
On the technique in general: Bead proximity is the source of the signal in Alpha formats.

Square brackets hold non-standard residues; d marks the D form. Peptide text beside a SMILES is read from it.

T1 sequence (P45983 1-384 isoform P45983-2): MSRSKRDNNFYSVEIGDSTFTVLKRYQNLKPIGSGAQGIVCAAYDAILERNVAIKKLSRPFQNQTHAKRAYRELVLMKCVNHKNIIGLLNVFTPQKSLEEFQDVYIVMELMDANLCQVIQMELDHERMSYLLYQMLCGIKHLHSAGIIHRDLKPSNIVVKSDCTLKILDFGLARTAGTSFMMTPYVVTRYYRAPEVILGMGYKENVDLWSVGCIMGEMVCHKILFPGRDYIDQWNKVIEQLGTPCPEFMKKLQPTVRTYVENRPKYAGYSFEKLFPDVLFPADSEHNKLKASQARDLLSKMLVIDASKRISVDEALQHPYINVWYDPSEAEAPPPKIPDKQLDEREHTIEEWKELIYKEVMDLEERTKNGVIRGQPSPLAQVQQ

With `CC(C)C[C@@H](NC(=O)[C@@H](Cc1ccccc1)NC(=O)[C@H]1CCCN1C(=O)[C@@H](CCC(N)=O)NC(=O)[C@H](NC(=O)[C@H]1CCCN1C(=O)[C@@H](CCCNC(=N)N)NC(=O)[C@@H](CO)NC(=O)[C@@H](CCC(N)=O)NC(=O)[C@H](N)CC(=O)O)C(C)C)C(=O)N[C@H](CC(N)=O)C(=O)N[C@H](CC(C)C)C(=O)N[C@@H](C(=O)N[C@@H](C(=O)N1CCC[C@@H]1C(=O)N[C@H](CCCNC(=N)N)C(=O)N[C@H](CCCCN)C(=O)N1CCC[C@@H]1C(=O)N[C@H](CCCNC(=N)N)C(=O)N1CCC[C@@H]1C(=O)N1CCC[C@@H]1C(=O)N[C@H](CCCNC(=N)N)C(=O)N[C@H](CCCNC(=N)N)C(=O)N[C@H](CCCNC(=N)N)C(=O)N[C@H](CCC(N)=O)C(=O)N[C@H](CCCNC(=N)N)C(=O)N[C@H](CCCNC(=N)N)C(=O)N[C@H](CCCCN)C(=O)N[C@H](CCCCN)C(=O)N[C@H](CCCNC(=N)N)C(=O)NCC(N)=O)[C@H](C)O)[C@H](C)O` [SEQ ID NO: 197, dqsrpvqpflnlttprkprpprrrqrrkkrg, reference compound] (H-[dD][dQ][dS][dR][dP][dV][dQ][dP][dF][dL][dN][dL][dT][dT][dP][dR][dK][dP][dR][dP][dP][dR][dR][dR][dQ][dR][dR][dK][dK][dR]G-NH2), the inhibitory capacity entry is listed as “significant decrease in inhibitory capacity”.

The record behind these values is patent US11331364B2, “Use for JNK inhibitor molecules for treatment of various diseases” (Xigen Inflammation Ltd., priority 2014, dated 2022).
